Assay results: US20250375405A1, “N-LACTOYL-PHENYLALANINE FOR PREVENTING AND/OR TREATING ISCHEMIC HEART DISEASE AND METHOD FOR PREVENTING AND/OR TREATING ISCHEMIC HEART DISEASE” (Harbin Medical University, priority 2024, published 2025)

Experiments:
[1] = system: mouse model of myocardial ischemia; assay: Mouse model of myocardial ischemia (left anterior descending coronary artery ligation), echocardiographic cardiac function; assay type: in vivo, mice; conditions: mouse MI model, Lac-Phe 20 mg/kg intraperitoneally, 1 week later, compared with the MI group
Description: The surgery for left anterior descending coronary artery ligation was performed on mice to establish a mouse model of myocardial ischemia (MI group). […] Mice in the MI group were intraperitoneally injected with Lac-Phe (20 mg/kg), and then anesthetized 1 week later. An M-Mode echocardiogram was obtained under the guidance of B-Mode on a Doppler ultrasound Vevo2100 imaging system for small animals, and 10 or more cardiac cycles were recorded. Instrumental analysis software was used to measure various cardiac indicators of mice to assess the cardiac functions of the mice, including a left ventricular internal dimension systole (LVID), a left ventricular end systolic volume (LVESV), an inter-ventricular septum end-stolic thickness (IVS), an E/A ratio, an ejection fraction (EF), and a fraction shortening (FS).

[2] = system: human umbilical vein endothelial cells (HUVECs); assay: Viability of hypoxic endothelial cells, CCK8 method; assay type: cell-based; conditions: Lac-Phe final concentrations 5, 10, 20 and 40 μM added 8 hours before hypoxia for 24 hours
Description: The Lac-Phe was added to human umbilical vein endothelial cells (HUVECs), and 8 hours later, the HUVECs were placed in a hypoxia incubator and cultured under hypoxia for 24 hours (N2 95%, CO2 5%). The cell viability was evaluated by Cell Counting Kit-8 (CCK8) method for the normal control group (CTRL), hypoxia group (Hypoxia), and Lac-Phe-treated hypoxia group.

HUVECs [3] = assay: Apoptosis of hypoxic endothelial cells by flow cytometry; assay type: cell-based, human; conditions: Lac-Phe final concentration 20 μM, added 8 hours before hypoxia for 24 hours
Description: The Lac-Phe was added to HUVECs, and 8 hours later, the HUVECs were placed in a hypoxia incubator and cultured under hypoxia for 24 hours (N2 95%, CO2 5%). The cell apoptosis was determined by flow cytometry for the normal control group (CTRL), hypoxia group (Hypoxia), and Lac-Phe-treated hypoxia group.

HUVECs [4] = assay: Endothelial cell migration, wound closure assay; assay type: cell-based, human; conditions: Lac-Phe final concentration 10 μM, 12, 24 and 36 hours, versus control with 0.1% DMSO
Description: HUVECs were divided into 2 groups: a control group (CTRL, including 0.1% of dimethylsulfoxide (DMSO)), and a Lac-Phe-treated group (final concentration: 10 μM). Cell monolayers were wounded in wells of a cell culture plate along the central axis of each well by an autoclaved white pipette tip, suspended cells in each well were washed with phosphate buffered saline (PBS), and a medium without fetal bovine serum was added to each well. The wounds were photographed with an inverted microscope, that is, the wound area was recorded at 0 hour. The cells were then further incubated in a cell culture incubator at 37° C. for 12 hours, 24 hours, and 36 hours. Then, the wounds were photographed under the inverted microscope, that is, the wound area was recorded. The ImageJ software was used to quantitatively assess the wound closure (FIG. 4A-FIG. 4B).

HUVECs [5] = assay: Endothelial cell tube formation assay; assay type: cell-based, human; conditions: Lac-Phe final concentration 20 μM, 24 hours after administration
Description: HUVECs were divided into 2 groups: a control group (CTRL, including 0.1% of DMSO), and a Lac-Phe-treated group (final concentration: 20 μM). 24 hours after administration, the endothelial cell tube formation assay was performed.
It can be seen from the experimental results that Lac-Phe can increase the length of branches and the number of branch points formed from HUVECs (FIG. 5A-FIG. 5C). The above results also indicate that Lac-Phe has the potential to promote angiogenesis.

[6] = system: Primary mouse cardiomyocytes; assay: Viability of hypoxic cardiomyocytes, CCK8 method; assay type: cell-based; conditions: Lac-Phe final concentrations 10 μM and 20 μM, hypoxia treatment for 24 hours
Description: Primary mouse cardiomyocytes were divided into the following 4 groups: a control group (CTRL, including 0.1% of DMSO), a hypoxia group (a hypoxia treatment was performed for 24 hours), and hypoxia+Lac-Phe groups (cardiomyocytes were treated with Lac-Phe at final concentrations of 10 μM and 20 μM, respectively, and a hypoxia treatment was performed for 24 hours). The viability of cardiomyocytes was assayed by the CCK8 method.
It can be seen from the experimental results that Lac-Phe has the function of protecting cardiomyocytes against hypoxic injury.

Macrophages (RAW264.7) = assay: LPS-induced pro-inflammatory cytokine expression in macrophages, qRT-PCR; assay type: cell-based; conditions: LPS 100 ng/ml, Lac-Phe final concentration 20 μM, 24 hours
Description: Macrophages (RAW264.7) were divided into the following 3 groups: a control group (CTRL, including 0.1% of DMSO), a lipopolysaccharide (LPS)-treated group (LPS-induced inflammatory responses in macrophages, a concentration: 100 ng/ml), and an LPS+Lac-Phe-treated group (Lac-Phe was added to LPS-induced macrophages at a final concentration of 20 μM). 24 hours after administration, RNA was extracted from cells in each group, and expression levels of pro-inflammatory cytokines IL-6 and TNFα in cells in each group were determined by quantitative real-time polymerase chain reaction (qRT-PCR). […] The above results also indicate that Lac-Phe has the anti-inflammatory potential.

experimental mice = conditions: supplementation of Lac-Phe, earlier studies; cited from earlier work

SMILES: C[C@H](O)C(=O)N[C@@H](Cc1ccccc1)C(=O)O [Lac-Phe, N-lactoyl-phenylalanine]
- cardiac function (LVID, LVESV, IVS, E/A ratio, EF, FS) by echocardiogram [1]: significant improvement effect on the cardiac function
- cell viability of hypoxic HUVECs [2]: significantly improved
- number of apoptotic HUVECs (HUVECs [3]): significantly reduced
- migration of endothelial cells (wound closure) (HUVECs [4]): promoting the migration of endothelial cells
- length of branches formed from HUVECs (HUVECs [5]): increase
- number of branch points formed from HUVECs (HUVECs [5]): increase
- viability of hypoxic cardiomyocytes [6]: significantly alleviate the hypoxic injury of cardiomyocytes
- expression level of pro-inflammatory cytokine IL-6 (Macrophages (RAW264.7)): significantly decreased
- expression level of pro-inflammatory cytokine TNFα (Macrophages (RAW264.7)): significantly decreased
- food intake of experimental mice (experimental mice): effectively reduce the food intake
